Assay results from patent US12083124B2 (Incyte Corporation, priority 2019, dated 2024).
Where two headings read alike, the source gives them in different places.

Legend:
[1] = target: wild-type un-phosphorylated FGFR2 (Homo sapiens, UniProt P21802); experiment: FGFR Enzymatic Assay (FRET peptide phosphorylation), FGFR2
[2] = target: wild-type un-phosphorylated FGFR3 (Homo sapiens, UniProt P22607); experiment: FGFR Enzymatic Assay (FRET peptide phosphorylation), FGFR3
Method: The inhibitor potency of the exemplified compounds was determined in an enzyme discontinuous assay that measures peptide phosphorylation using FRET measurements to detect product formation. Inhibitors were serially diluted in DMSO and a volume of 0.2 μL was transferred to the wells of a 384-well plate. […] Appropriate controls (enzyme blank and enzyme with no inhibitor) were included on the plate. […] The 10 μL/well reaction concentration of the peptide substrate was 500 nM whereas the ATP concentration was maintained near or below the ATP Km. The ATP Km values were pre-determined in a separate series of experiments. The reaction plate was incubated at 25° C. for 1 hr and the reactions were ended with the addition of 5 μL/well of quench solution (50 mM Tris, 150 mM NaCl, 0.5 mg/mL BSA, pH 7.8; 45 mM EDTA, 600 nM staurosporin, with Perkin Elmer Lance Reagents at 3.75 nM Eu-antibody PY20 and 180 nM APC-Streptavidin). The plate was allowed to equilibrate for ˜10 minutes at ambient temperature before scanning on a PheraStar plate reader (BMG Labtech) instrument.
Either GraphPad prism or XLfit was used to analyze the data. The IC50 values were derived by fitting the data to a four parameter logistic equation producing a sigmoidal dose-response curve with a variable Hill coefficient. Prism equation: Y=Bottom+(Top-Bottom)/(1+10^((Log IC50-X)*Hill slope)); XLfit equation: Y=(A+((B−A)/(1+((X/C)^D)))) where X is the logarithm of inhibitor concentration and Y is the response.
GraphPad prism3 was used to analyze the data. The IC50 values were derived by fitting the data to the equation for a sigmoidal dose-response with a variable slope. Y=Bottom+(Top-Bottom)/(1+10^((Log IC50-X)*Hill Slope)) where X is the logarithm of concentration and Y is the response.

[3] = target: wild-type un-phosphorylated FGFR1 (Homo sapiens, UniProt P11362); experiment: FGFR Enzymatic Assay (FRET peptide phosphorylation), FGFR1; settings: pre-incubated for 4 hours
[4] = target: wild-type un-phosphorylated FGFR4 (Homo sapiens, UniProt P22455); experiment: FGFR Enzymatic Assay (FRET peptide phosphorylation), FGFR4
[5] = read-out: FGFR2, wild-type un-phosphorylated FGFR2, pre-incubated for 4 hours
[6] = FGFR1, wild-type un-phosphorylated FGFR1
[7] = read-out: FGFR1, wild-type un-phosphorylated FGFR1
[8] = read-out: FGFR4, wild-type un-phosphorylated FGFR4, pre-incubated for 4 hours

Sequence of wild-type un-phosphorylated FGFR4 (P22455 22-802): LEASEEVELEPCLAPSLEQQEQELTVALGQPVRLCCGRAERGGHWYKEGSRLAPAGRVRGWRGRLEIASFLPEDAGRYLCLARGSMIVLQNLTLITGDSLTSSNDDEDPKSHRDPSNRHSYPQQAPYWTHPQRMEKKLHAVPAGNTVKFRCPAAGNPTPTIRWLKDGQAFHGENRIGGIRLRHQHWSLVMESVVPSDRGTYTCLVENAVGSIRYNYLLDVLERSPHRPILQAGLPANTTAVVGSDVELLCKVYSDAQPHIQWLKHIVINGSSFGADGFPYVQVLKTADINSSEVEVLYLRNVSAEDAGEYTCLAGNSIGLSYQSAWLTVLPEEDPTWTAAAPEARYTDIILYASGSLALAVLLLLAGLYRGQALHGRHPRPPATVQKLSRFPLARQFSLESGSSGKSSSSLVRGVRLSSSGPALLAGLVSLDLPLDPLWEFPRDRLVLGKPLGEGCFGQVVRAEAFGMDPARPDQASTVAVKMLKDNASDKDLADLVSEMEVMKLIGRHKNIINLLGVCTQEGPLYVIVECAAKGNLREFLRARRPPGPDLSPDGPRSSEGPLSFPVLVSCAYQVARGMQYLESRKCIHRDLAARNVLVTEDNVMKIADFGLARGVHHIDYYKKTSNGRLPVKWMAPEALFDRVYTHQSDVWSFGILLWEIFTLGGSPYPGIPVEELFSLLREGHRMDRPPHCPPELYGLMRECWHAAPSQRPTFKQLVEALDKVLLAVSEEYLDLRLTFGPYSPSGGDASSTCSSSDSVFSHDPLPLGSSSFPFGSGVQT
Sequence of wild-type un-phosphorylated FGFR3 (P22607 23-806): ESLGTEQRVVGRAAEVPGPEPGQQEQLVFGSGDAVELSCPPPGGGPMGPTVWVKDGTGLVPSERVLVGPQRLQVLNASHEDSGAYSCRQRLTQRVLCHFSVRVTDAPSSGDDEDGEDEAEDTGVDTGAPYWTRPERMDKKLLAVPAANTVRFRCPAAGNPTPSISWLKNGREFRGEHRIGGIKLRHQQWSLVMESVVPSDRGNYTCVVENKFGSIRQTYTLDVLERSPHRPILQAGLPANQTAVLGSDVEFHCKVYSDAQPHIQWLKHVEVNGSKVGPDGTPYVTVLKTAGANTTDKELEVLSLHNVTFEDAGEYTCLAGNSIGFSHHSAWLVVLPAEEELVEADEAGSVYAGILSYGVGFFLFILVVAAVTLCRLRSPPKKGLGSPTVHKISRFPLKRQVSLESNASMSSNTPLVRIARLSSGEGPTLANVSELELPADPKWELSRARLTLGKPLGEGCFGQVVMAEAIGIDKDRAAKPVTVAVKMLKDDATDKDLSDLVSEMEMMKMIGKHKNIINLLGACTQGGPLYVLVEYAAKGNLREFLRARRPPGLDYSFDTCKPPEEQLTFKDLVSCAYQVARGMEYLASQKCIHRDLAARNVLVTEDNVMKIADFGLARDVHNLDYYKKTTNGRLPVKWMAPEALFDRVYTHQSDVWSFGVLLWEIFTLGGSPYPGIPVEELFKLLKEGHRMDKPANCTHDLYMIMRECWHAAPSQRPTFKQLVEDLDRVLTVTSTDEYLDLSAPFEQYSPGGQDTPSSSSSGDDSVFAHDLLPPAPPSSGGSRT
Sequence of wild-type un-phosphorylated FGFR1 (P11362 22-822): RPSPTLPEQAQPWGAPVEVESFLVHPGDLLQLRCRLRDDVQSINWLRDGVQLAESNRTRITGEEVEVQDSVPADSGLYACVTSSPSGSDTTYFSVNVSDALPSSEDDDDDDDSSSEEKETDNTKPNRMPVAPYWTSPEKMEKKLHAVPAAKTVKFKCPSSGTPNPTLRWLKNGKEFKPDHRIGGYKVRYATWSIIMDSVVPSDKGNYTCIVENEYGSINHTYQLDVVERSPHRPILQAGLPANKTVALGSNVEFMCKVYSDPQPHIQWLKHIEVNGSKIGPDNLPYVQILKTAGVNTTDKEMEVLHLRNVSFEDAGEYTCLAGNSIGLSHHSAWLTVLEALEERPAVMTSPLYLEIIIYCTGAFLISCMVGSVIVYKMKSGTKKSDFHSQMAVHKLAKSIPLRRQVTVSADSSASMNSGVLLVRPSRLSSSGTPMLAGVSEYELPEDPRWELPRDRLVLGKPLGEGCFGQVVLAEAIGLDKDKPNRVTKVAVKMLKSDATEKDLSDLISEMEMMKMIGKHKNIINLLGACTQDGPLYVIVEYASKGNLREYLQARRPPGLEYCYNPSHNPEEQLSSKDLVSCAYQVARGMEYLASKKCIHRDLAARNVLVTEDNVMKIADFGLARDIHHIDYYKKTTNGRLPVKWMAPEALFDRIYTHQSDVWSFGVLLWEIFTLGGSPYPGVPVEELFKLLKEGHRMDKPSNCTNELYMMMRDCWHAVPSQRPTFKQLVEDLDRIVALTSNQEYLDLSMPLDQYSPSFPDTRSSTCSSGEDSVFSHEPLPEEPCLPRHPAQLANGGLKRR
Sequence of wild-type un-phosphorylated FGFR2 (P21802 22-821): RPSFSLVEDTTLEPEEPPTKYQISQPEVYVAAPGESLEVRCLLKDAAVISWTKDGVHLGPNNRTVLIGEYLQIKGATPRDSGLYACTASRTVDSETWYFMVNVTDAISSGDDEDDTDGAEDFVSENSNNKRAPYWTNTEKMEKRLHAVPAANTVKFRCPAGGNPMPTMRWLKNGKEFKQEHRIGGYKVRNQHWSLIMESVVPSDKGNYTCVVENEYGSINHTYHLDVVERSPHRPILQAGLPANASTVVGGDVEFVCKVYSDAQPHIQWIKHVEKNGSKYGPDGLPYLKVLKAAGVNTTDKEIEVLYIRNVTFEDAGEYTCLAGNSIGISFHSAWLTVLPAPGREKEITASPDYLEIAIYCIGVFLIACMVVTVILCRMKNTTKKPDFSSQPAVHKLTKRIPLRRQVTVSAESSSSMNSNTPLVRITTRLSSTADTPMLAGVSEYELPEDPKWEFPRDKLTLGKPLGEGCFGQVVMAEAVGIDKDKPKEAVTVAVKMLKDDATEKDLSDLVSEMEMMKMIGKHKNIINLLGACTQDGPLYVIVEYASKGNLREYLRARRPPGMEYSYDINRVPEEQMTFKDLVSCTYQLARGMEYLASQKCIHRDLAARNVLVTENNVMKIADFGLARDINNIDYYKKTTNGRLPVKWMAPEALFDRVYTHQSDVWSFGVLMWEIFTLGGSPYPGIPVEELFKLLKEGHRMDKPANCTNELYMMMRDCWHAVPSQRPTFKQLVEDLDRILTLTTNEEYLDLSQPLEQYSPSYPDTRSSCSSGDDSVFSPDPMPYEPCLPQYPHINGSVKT

IC50 [1, 5] [nM] | IC50 [2] [nM] | IC50 [3, 6] [nM] | IC50 [4] [nM] | IC50 [1] [nM] | IC50 [3, 7] [nM] | IC50 [4, 8] [nM] | SMILES
6 to 40 | < 6 | > 100 | > 100 | – | – | – | COc1cc2[nH]nc(-c3cnn(C)c3)c2nc1-c1cccc(CC#N)c1C [Example 5, 2-(3-(6-Methoxy-3-(1-methyl-1H-pyrazol-4-yl)-1H-pyrazolo[4,3-b]pyridin-5-yl)-2-methylphenyl)acetonitrile]
– | < 6 | – | – | < 6 | 6 to 40 | 6 to 40 | COc1cc2[nH]nc(-c3ccc(C4(C#N)CCN(C(=O)CO)CC4)nc3)c2nc1-c1cccc2c1CCC2 [Example 165, 4-(5-(5-(2,3-Dihydro-1H-inden-4-yl)-6-methoxy-1H-pyrazolo[4,3-b]pyridin-3-yl)pyridin-2-yl)-1-(2-hydroxyacetyl)piperidine-4-carbonitrile]
– | < 6 | 40 to 100 | 40 to 100 | < 6 | – | – | COc1cc2[nH]nc(-c3cnn(C)c3)c2nc1-c1cccc2c1CCC2 [Example 2, 5-(2,3-Dihydro-1H-inden-4-yl)-6-methoxy-3-(1-methyl-1H-pyrazol-4-yl)-1H-pyrazolo[4,3-b]pyridine]
– | < 6 | 40 to 100 | > 100 | < 6 | – | – | COc1cc2[nH]nc(-c3cnn(C4CCN(C(=O)N(C)C)CC4)c3)c2nc1-c1cccc2c1CCC2 [Example 19, 4-(4-(5-(2,3-Dihydro-1H-inden-4-yl)-6-methoxy-1H-pyrazolo[4,3-b]pyridin-3-yl)-1H-pyrazol-1-yl)-N,N-dimethylpiperidine-1-carboxamide]
6 to 40 | < 6 | 40 to 100 | > 100 | – | – | – | Cn1cc(-c2n[nH]c3cc(CO)c(-c4cccc5c4CCC5)nc23)cn1 [Example 36, (5-(2,3-Dihydro-1H-inden-4-yl)-3-(1-methyl-1H-pyrazol-4-yl)-1H-pyrazolo[4,3-b]pyridin-6-yl)methanol]
– | < 6 | – | 40 to 100 | < 6 | 6 to 40 | – | COc1cc2[nH]nc(-c3cnn(C4CN(C(=O)[C@H](C)O)C4)c3)c2nc1-c1cccc2c1CCC2 [Example 124, (S)-1-(3-(4-(5-(2,3-Dihydro-1H-inden-4-yl)-6-methoxy-1H-pyrazolo[4,3-b]pyridin-3-yl)-1H-pyrazol-1-yl)azetidin-1-yl)-2-hydroxypropan-1-one]
– | < 6 | 40 to 100 | 40 to 100 | < 6 | – | – | COc1cc2[nH]nc(-c3cnn(C4CC4)c3)c2nc1-c1cccc2c1CCC2 [Example 29, 3-(1-Cyclopropyl-1H-pyrazol-4-yl)-5-(2,3-dihydro-1H-inden-4-yl)-6-methoxy-1H-pyrazolo[4,3-b]pyridine]
– | < 6 | – | – | < 6 | 6 to 40 | 6 to 40 | COc1cc2[nH]nc(-c3ccc(N4CCN5C[C@H](O)C[C@H]5C4)nc3)c2nc1-c1cccc2c1CCC2 [Example 170, (7R,8aS)-2-(5-(5-(2,3-Dihydro-1H-inden-4-yl)-6-methoxy-1H-pyrazolo[4,3-b]pyridin-3-yl)pyridin-2-yl)octahydropyrrolo[1,2-a]pyrazin-7-ol]
– | < 6 | – | – | < 6 | 6 to 40 | 6 to 40 | COc1cc2[nH]nc(-c3cnn([C@H]4CCN(C(=O)[C@H]5C[C@@](C)(O)C5)C4)c3)c2nc1-c1cccc2c1CCC2 [Example 146, ((S)-3-(4-(5-(2,3-Dihydro-1H-inden-4-yl)-6-methoxy-1H-pyrazolo[4,3-b]pyridin-3-yl)-1H-pyrazol-1-yl)pyrrolidin-1-yl)((1s,3r)-3-hydroxy-3-methylcyclobutyl)methanone]
– | < 6 | – | 40 to 100 | < 6 | 6 to 40 | – | COCC(=O)N1CC(n2cc(-c3n[nH]c4cc(OC)c(-c5cccc6c5CCC6)nc34)cn2)C1 [Example 147, 1-(3-(4-(5-(2,3-Dihydro-1H-inden-4-yl)-6-methoxy-1H-pyrazolo[4,3-b]pyridin-3-yl)-1H-pyrazol-1-yl)azetidin-1-yl)-2-methoxyethan-1-one]
– | < 6 | – | – | < 6 | 6 to 40 | 6 to 40 | COc1cc2[nH]nc(-c3cnn(C4CN(C(=O)[C@H]5C[C@@H](O)C5)C4)c3)c2nc1-c1cccc2c1CCC2 [Example 126, (3-(4-(5-(2,3-Dihydro-1H-inden-4-yl)-6-methoxy-1H-pyrazolo[4,3-b]pyridin-3-yl)-1H-pyrazol-1-yl)azetidin-1-yl)((cis)-3-hydroxycyclobutyl)methanone]
– | < 6 | – | 40 to 100 | < 6 | 6 to 40 | – | COc1cc2[nH]nc(-c3cnn(C4CN(C(=O)[C@H]5CCN5C)C4)c3)c2nc1-c1cccc2c1CCC2 [Example 122, (R)-(3-(4-(5-(2,3-Dihydro-1H-inden-4-yl)-6-methoxy-1H-pyrazolo[4,3-b]pyridin-3-yl)-1H-pyrazol-1-yl)azetidin-1-yl)(1-methylazetidin-2-yl)methanone]
